# ChEMBL document CHEMBL4840343, “Fragment-based lead discovery of indazole-based compounds as AXL kinase inhibitors” (Bioorg Med Chem, 2021)
# Calls of active or inactive are those of the source. The rule behind the calls is not given here.
# How the values were obtained:
# [1] = target: T1, Tyrosine-protein kinase receptor UFO (Homo sapiens, UniProt P30530); experiment: Inhibition of Axl (unknown origin) using 5'FAM labeled KKKKEEIYFFF-NH2 peptide as substrate incubated for 1.5 hrs
# T1 sequence (P30530 whole entry): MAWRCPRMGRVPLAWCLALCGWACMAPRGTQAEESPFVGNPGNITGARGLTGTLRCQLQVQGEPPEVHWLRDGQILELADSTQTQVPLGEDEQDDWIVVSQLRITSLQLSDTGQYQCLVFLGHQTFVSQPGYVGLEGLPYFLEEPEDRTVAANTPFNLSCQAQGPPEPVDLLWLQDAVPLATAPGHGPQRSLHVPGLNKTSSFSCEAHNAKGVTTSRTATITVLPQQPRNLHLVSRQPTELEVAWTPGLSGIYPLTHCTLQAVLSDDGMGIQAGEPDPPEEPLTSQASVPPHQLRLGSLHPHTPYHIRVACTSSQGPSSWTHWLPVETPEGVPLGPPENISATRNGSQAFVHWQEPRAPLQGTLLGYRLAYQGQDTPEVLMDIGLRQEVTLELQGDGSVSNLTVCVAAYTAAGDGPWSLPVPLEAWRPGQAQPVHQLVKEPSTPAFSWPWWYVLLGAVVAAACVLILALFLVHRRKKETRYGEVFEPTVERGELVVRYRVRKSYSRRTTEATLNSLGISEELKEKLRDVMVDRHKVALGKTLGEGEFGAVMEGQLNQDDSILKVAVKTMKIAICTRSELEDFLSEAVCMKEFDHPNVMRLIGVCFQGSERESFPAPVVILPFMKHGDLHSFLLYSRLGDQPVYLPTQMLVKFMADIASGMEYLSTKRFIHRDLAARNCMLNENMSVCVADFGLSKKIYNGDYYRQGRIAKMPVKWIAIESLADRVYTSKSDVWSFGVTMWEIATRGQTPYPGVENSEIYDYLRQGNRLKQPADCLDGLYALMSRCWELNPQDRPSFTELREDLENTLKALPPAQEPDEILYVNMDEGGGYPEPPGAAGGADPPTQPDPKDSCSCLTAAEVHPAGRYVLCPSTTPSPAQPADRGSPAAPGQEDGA
# [2] = target: T1, Tyrosine-protein kinase receptor UFO; experiment: Displacement of K5 tracer from Axl (unknown origin) expressed in human HEK293 cells cotransfected with NanoLuc measured after 2 hrs by NanoBRET assay; format: cell-based
# [3] = test system: SK-OV-3; experiment: Antiproliferative activity against human SK-OV-3 cells as reduction in cell growth measured after 72 hrs by Celltiter-Glo luminescent assay; format: functional
# [4] = target: Tyrosine-protein kinase receptor UFO (Homo sapiens) (UniProt P30530); experiment: Inhibition of Axl in human SK-OV-3 cells assessed as reduction in phosphorylated Axl level measured after 1 hr by Western blot analysis; format: cell-based; conditions: dose 1-10 µM
# [5] = target: Tyrosine-protein kinase receptor UFO (Homo sapiens) (UniProt P30530); experiment: Inhibition of Axl in human SK-OV-3 cells assessed as reduction in phosphorylated ERK1/2 level at 1 to 10 uM measured after 1 hr by Western blot analysis; format: cell-based; conditions: dose 1-10 µM
# [6] = Permeability across apical to basolateral side in human Caco-2 cells; format: ADME, cell-based; conditions: read-out: permeability
# [7] = Half life in mouse at 5 mg/kg, po; format: ADME, organism-based; conditions: in vivo
# [8] = Intrinsic clearance in human liver microsomes; format: ADME, Microsome; conditions: read-out: CLH
# [9] = Tmax in mouse at 5 mg/kg, po; format: ADME, organism-based; conditions: in vivo
# [10] = AUC (0 to infinity) in mouse at 5 mg/kg, po; format: ADME, organism-based; parameters: route oral, time infinity, dose 5 mg/kg; conditions: in vivo
# [11] = Intrinsic clearance in mouse liver microsomes; format: ADME, Microsome; conditions: read-out: CLH
# [12] = Permeability across basolateral to apical side in human Caco-2 cells; format: ADME, cell-based; conditions: read-out: permeability
# [13] = Efflux ratio of permeability in human Caco-2 cells; format: ADME, cell-based
# [14] = Cmax in mouse at 5 mg/kg, po; format: ADME, organism-based; parameters: route oral, dose 5 mg/kg; conditions: in vivo
# [15] = Thermodynamic solubility of compound at pH 7.4; format: physicochemical; conditions: buffer, read-out: Therm_solubility
# [16] = Distribution coefficient, logD of compound at pH 7.4; format: physicochemical; conditions: octanol/water
# [17] = target: Proto-oncogene tyrosine-protein kinase receptor Ret (Homo sapiens) (UniProt P07949); experiment: Inhibition of RET (unknown origin)
# Sequence of Proto-oncogene tyrosine-protein kinase receptor Ret (Homo sapiens) (P07949 whole entry): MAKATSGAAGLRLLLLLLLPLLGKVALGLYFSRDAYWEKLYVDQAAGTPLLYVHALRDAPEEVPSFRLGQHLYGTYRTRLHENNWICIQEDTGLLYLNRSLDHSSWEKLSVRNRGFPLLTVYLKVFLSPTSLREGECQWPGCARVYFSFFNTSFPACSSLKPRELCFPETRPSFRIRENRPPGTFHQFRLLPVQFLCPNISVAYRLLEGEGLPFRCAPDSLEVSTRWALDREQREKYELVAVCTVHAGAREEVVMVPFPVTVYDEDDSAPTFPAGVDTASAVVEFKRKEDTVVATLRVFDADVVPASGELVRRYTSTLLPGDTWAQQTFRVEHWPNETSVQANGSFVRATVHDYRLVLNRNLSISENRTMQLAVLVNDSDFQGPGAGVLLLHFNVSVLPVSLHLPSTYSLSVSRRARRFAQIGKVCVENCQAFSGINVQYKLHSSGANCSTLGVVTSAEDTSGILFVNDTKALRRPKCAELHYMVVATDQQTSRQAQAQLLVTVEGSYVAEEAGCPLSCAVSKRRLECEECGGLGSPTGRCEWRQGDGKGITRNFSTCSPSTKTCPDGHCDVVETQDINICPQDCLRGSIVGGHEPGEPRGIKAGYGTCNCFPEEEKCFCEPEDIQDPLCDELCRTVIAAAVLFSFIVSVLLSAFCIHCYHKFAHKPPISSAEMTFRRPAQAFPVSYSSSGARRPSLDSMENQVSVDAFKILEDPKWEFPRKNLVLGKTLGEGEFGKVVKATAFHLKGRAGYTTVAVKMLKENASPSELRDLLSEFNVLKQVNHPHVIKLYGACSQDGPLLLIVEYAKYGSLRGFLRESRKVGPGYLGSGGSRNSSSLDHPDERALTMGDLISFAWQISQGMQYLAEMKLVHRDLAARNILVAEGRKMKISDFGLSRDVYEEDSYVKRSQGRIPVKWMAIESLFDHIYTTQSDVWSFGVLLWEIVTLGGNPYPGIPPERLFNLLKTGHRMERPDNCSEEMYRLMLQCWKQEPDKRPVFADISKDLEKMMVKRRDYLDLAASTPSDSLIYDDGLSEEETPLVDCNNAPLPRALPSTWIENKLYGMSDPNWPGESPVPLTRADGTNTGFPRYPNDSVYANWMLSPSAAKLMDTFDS
# [18] = target: Receptor-type tyrosine-protein kinase FLT3 (Homo sapiens) (UniProt P36888); experiment: Inhibition of FLT3 (unknown origin)
# Sequence of Receptor-type tyrosine-protein kinase FLT3 (Homo sapiens) (P36888 whole entry): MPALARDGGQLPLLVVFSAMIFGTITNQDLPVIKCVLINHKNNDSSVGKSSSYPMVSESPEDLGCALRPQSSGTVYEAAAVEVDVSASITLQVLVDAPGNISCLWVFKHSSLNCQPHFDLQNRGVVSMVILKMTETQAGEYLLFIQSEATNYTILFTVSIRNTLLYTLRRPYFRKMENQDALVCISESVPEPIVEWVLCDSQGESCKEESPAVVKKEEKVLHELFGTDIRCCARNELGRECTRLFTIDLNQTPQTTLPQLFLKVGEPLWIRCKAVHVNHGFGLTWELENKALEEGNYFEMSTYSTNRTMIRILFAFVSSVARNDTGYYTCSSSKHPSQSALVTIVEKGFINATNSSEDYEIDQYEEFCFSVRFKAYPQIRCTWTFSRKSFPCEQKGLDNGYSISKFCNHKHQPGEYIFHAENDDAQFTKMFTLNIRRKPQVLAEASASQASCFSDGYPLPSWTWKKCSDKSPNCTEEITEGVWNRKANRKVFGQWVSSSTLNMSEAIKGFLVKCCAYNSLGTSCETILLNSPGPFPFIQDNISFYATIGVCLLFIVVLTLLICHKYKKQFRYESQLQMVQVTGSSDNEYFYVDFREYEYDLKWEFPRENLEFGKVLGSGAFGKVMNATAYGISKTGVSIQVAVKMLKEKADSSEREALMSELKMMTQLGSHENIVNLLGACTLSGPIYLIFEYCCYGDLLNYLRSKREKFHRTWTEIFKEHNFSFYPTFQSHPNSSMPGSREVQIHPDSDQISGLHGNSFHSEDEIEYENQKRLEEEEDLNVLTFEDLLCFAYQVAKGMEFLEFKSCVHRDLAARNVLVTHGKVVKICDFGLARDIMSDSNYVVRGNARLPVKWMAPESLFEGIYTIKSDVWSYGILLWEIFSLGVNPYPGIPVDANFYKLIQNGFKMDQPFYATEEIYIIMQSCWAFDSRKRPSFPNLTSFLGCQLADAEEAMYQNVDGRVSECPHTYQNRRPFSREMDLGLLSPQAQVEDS
# [19] = target: MAP kinase-interacting serine/threonine-protein kinase 2 (Homo sapiens) (UniProt Q9HBH9); experiment: Inhibition of MKNK2 (unknown origin)
# Sequence of MAP kinase-interacting serine/threonine-protein kinase 2 (Homo sapiens) (Q9HBH9 whole entry, looked up): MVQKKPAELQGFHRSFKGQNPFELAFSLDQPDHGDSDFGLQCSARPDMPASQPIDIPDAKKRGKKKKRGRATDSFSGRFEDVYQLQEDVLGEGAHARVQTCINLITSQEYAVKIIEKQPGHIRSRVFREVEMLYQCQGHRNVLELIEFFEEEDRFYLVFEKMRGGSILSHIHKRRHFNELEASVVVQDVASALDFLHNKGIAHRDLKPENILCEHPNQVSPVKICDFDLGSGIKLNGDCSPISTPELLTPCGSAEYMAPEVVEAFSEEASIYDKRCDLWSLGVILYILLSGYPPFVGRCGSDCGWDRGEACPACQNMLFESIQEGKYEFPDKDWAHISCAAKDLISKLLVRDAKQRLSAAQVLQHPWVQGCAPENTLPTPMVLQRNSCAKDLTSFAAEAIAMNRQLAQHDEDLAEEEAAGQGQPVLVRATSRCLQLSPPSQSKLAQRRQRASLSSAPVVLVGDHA
structure (smiles),measurement,setting,value
c1cnc2[nH]ccc2c1,IC50,[1],391 µM
O=C1CC(c2ccccc2)=NN1,IC50,[1],13 µM
Nc1ccc2c(-c3cccnc3)n[nH]c2c1,IC50,[1],28.4 µM
O=C(O)c1ccc2c(Br)n[nH]c2c1,IC50,[1],> 770 µM
COc1ccc(-n2cc(-c3n[nH]c4cc(Cl)c(N[C@@H]5CCNC5)cc34)cn2)cc1,IC50,[2],0.374 µM
same,IC50,[1],0.3 µM
same,GI50,[3],0.718 µM
same,inhibition,[4],Dose-Dependent Effect
same,inhibition,[5],Active
Brc1cccc2[nH]ncc12,IC50,[1],178 µM
FCCn1cc(-c2n[nH]c3cc(Cl)c(N[C@@H]4CCNC4)cc23)cn1,IC50,[2],3.46 µM
same,IC50,[1],5 µM
COc1ccc2[nH]c(C)cc2c1,IC50,[1],38 µM
Fc1ccc(-n2cc(-c3n[nH]c4cc(Cl)c(N[C@@H]5CCNC5)cc34)cn2)cc1,IC50,[2],0.684 µM
same,IC50,[1],2.3 µM
FC(F)(F)n1cc(-c2n[nH]c3cc(Cl)c(N[C@@H]4CCN(C5COC5)C4)cc23)cn1,Papp A→B,[6],21.1 ×10⁻⁶ cm/s
same,IC50,[2],26.3 µM
same,half-life,[7],2.6 h
same,IC50,[1],466 µM
same,microsomal CLint,[8],15.4 µL/min/mg
same,Tmax,[9],0.17 h
same,AUC(0-inf),[10],573 ng·h/mL
same,microsomal CLint,[11],43.9 µL/min/mg
same,Papp B→A,[12],17.4 ×10⁻⁶ cm/s
same,efflux ratio,[13],0.82
same,Cmax,[14],258 ng/mL
same,solubility thermodynamic,[15],4.58 µg/mL
same,logD,[16],3.66
Cn1cc(-c2n[nH]c3cc(N)ccc23)cn1,IC50,[1],28.8 µM
c1cncc(-c2csc(-c3cccnc3)n2)c1,IC50,[1],305 µM
Nc1ccc(Br)c2ccncc12,IC50,[1],57 µM
CC(C)Nc1ccc2c(-c3cnn(C)c3)n[nH]c2c1,IC50,[1],46.6 µM
O=C(O)c1ccc2cn[nH]c2c1,IC50,[1],> 770 µM
N#Cc1ccc(-n2cc(-c3n[nH]c4cc(Cl)c(N[C@@H]5CCNC5)cc34)cn2)cc1,IC50,[2],0.88 µM
same,IC50,[1],0.7 µM
same,GI50,[3],0.0529 µM
Cn1cc(-c2n[nH]c3cc(Cl)c(N[C@@H]4CCN(C5COC5)C4)cc23)cn1,Papp A→B,[6],13.7 ×10⁻⁶ cm/s
same,IC50,[2],24.7 µM
same,half-life,[7],2 h
same,IC50,[1],320 µM
same,microsomal CLint,[8],6.9 µL/min/mg
same,Tmax,[9],0.17 h
same,AUC(0-inf),[10],396 ng·h/mL
same,microsomal CLint,[11],15.2 µL/min/mg
same,Papp B→A,[12],31.6 ×10⁻⁶ cm/s
same,efflux ratio,[13],2.31
same,Cmax,[14],126 ng/mL
same,solubility thermodynamic,[15],245 µg/mL
same,logD,[16],2.31
Cc1cnc2[nH]ccc2c1Cl,IC50,[1],20.2 µM
COc1ccc(-n2cc(-c3n[nH]c4cc(Cl)c(N[C@H]5CNCC56CC6)cc34)cn2)cc1,Papp A→B,[6],4.05 ×10⁻⁶ cm/s
same,IC50,[2],0.883 µM
same,half-life,[7],2.16 h
same,IC50,[1],1 µM
same,microsomal CLint,[8],83 µL/min/mg
same,Tmax,[9],0.25 h
same,AUC(0-inf),[10],129 ng·h/mL
same,microsomal CLint,[11],5.14 µL/min/mg
same,Papp B→A,[12],5.24 ×10⁻⁶ cm/s
same,GI50,[3],0.0285 µM
same,efflux ratio,[13],1.3
same,Cmax,[14],53 ng/mL
same,solubility thermodynamic,[15],5.55 µg/mL
same,logD,[16],> 5
Cn1cc(-c2n[nH]c3ccc(Br)cc23)cn1,IC50,[1],1.54 µM
Cn1cc(-c2n[nH]c3cc(Br)ccc23)cn1,IC50,[1],0.95 µM
Nc1ccc2[nH]nc(Br)c2c1,IC50,[1],> 770 µM
COc1ccc(-n2cc(-c3n[nH]c4cc(Cl)c(N[C@@H]5CCN(C6COC6)C5)cc34)cn2)cc1,Papp A→B,[6],15.2 ×10⁻⁶ cm/s
same,IC50,[2],11.4 µM
same,half-life,[7],2.46 h
same,IC50,[1],41.5 µM
same,microsomal CLint,[8],129 µL/min/mg
same,Tmax,[9],0.25 h
same,AUC(0-inf),[10],1620 ng·h/mL
same,microsomal CLint,[11],44.8 µL/min/mg
same,Papp B→A,[12],8.41 ×10⁻⁶ cm/s
same,inhibition,[17],Active
same,GI50,[3],1.02 µM
same,inhibition,[4],Dose-Dependent Effect
same,inhibition,[18],Active
same,efflux ratio,[13],0.55
same,Cmax,[14],460 ng/mL
same,inhibition,[5],Active
same,solubility thermodynamic,[15],1.84 µg/mL
same,logD,[16],4.75
same,inhibition,[19],Active
COc1cc2[nH]ncc2cc1Br,IC50,[1],227 µM
Brc1c[nH]c2ncccc12,IC50,[1],22.8 µM
Cc1ccc(C)n1-c1ccsc1C(=O)O,IC50,[1],70 µM
